Among the data in ChEMBL document CHEMBL1128954, “Discovery of antirhinoviral leads by screening a combinatorial library of ureas prepared using covalent scavengers” (Bioorg Med Chem Lett, 1996) are inhibition, IC50 and TC50 values, retold here.

Test [1] has as its system Human rhinovirus sp. Put plainly: Compound was evaluated for the inhibition of human rhinovirus-14 HRV-14 at 1 ug/ml. It counts as functional.
Test [2] deals with Human rhinovirus sp. Description: Compound was evaluated for antirhinoviral activity against human rhinovirus-14 (HRV-14) as combinatorial sample. It counts as functional, organism-based.
In test [3] the test system is Human rhinovirus sp. Description: Compound was evaluated for cytotoxicity against human rhinovirus-14 (HRV-14) in whole cells as combinatorial sample. It counts as functional.
In test [4] the test system is Human rhinovirus sp. Put plainly: Compound was evaluated for cytotoxicity against human rhinovirus-14 (HRV-14) in whole cells as cresynthesized product using XTT assay. It counts as functional.
Test [5] has as its system Human rhinovirus sp. Put plainly: Compound was evaluated for antirhinoviral activity against human rhinovirus-14 (HRV-14) as resynthesized product using XTT assay. It counts as functional, organism-based.
Test [6] has as its system Human rhinovirus sp. Description: Compound was evaluated for antirhinoviral activity against human rhinovirus-14 (HRV-14) in whole cell assay. It counts as functional, organism-based.

Take `CCCCOC(=O)c1ccc(NC(=O)NCCNC(C)=O)cc1`: the inhibition at 1 µg/mL in the test with Human rhinovirus sp. [1] amounted to 0%. On to `CCCCOC(=O)c1ccc(NC(=O)NC2CC3CCC2C3)cc1` (stereo not drawn), for which the inhibition at 1 µg/mL in the test with Human rhinovirus sp. [1] is 1%. For `CCCCOC(=O)c1ccc(NC(=O)NCCc2ccc(S(N)(=O)=O)cc2)cc1`, the values for the IC50 with Human rhinovirus sp. [2] and in the test on Human rhinovirus sp. [5] were 690 nM and 810 nM, respectively. In addition, the TC50 in the test on Human rhinovirus sp. [3] is 34000 nM; with Human rhinovirus sp. [4], >40000 nM. In addition, the inhibition at 1 µg/mL in the test with Human rhinovirus sp. [1] amounted to 102%. With `CCCCOC(=O)c1ccc(NC(=O)N2CCN(CC(=O)NC(C)C)CC2)cc1`, the TC50 in the test on Human rhinovirus sp. [3] and in the test with Human rhinovirus sp. [4] was >40000 nM throughout. In addition, the inhibition at 1 µg/mL in the test on Human rhinovirus sp. [1] came to 101%. The IC50 came out at 2400 nM in the test on Human rhinovirus sp. [6] and 1800 nM in the test with Human rhinovirus sp. [6] (Human rhinovirus sp.). For the compound `CCCCOC(=O)c1ccc(NC(=O)N2CCN(c3ccccn3)CC2)cc1`, in the test with Human rhinovirus sp. [1], the inhibition at 1 µg/mL was 0%.

As to `CCCCOC(=O)c1ccc(NC(=O)N2CCC(C(N)=O)CC2)cc1`, the inhibition at 1 µg/mL in the test with Human rhinovirus sp. [1] turned out to be 0%. Still for that read-out and setting: the value for `CCCCOC(=O)c1ccc(NC(=O)N2CCSCC2)cc1` was 1%; that for `CCCCOC(=O)c1ccc(NC(=O)N2CCCC(C(N)=O)C2)cc1` (stereo not drawn) was 1%; that for `CCCCOC(=O)c1ccc(NC(=O)N2CCCCC2O)cc1` (stereo not drawn) was 2%. In the case of `CCCCOC(=O)c1ccc(NC(=O)N2CCCC(C(=O)N(CC)CC)C2)cc1` (stereo not drawn), in the test on Human rhinovirus sp. [1], the inhibition at 1 µg/mL was 0%.
